± gives the expanded uncertainty stated by the source.
Assay: refractive index (other wavelength) (dimensionless)
Conditions: 100 kPa, Liquid, Wavelength=632.8 nm, He-Ne laser

refractive index (280.98 K)	refractive index (281.89 K)	refractive index (283.78 K)	refractive index (286.19 K)	refractive index (288.04 K)	refractive index (290.13 K)	refractive index (280.08 K)	refractive index (281.97 K)	refractive index (283.66 K)	refractive index (285.71 K)	refractive index (287.84 K)	refractive index (290.47 K)	Compound
1.5309 ± 0.0003	1.5304 ± 0.0003	1.5296 ± 0.0003	1.5284 ± 0.0003	1.5275 ± 0.0003	1.5266 ± 0.0003	–	–	–	–	–	–	N#Cc1ccccc1 [benzonitrile]
–	–	–	–	–	–	1.4216 ± 0.0003	1.4209 ± 0.0003	1.4201 ± 0.0003	1.4192 ± 0.0003	1.4182 ± 0.0003	1.4171 ± 0.0003	CCCCCCCCCCC [undecane]

Source: the NIST ThermoML archive (doi:10.1016/j.jct.2012.04.018)
